pIC50: −log10 of the molar value.
Tests used:
Assay type in all cases: cell-based
Met = Met (Homo sapiens (Human), UniProt P08581); experiment: Met autophosphorylation ELISA in PC-3 cells; conditions: cellular, HGF-stimulated, phospho-Met ELISA, read-out: c-Met IC50
Procedure, shortened: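 Serum-starved PC-3 cells treated 1 h with compound (8-point series, 0.3% DMSO), then stimulated 10 min with 100 ng/mL HGF. Phospho-Met (panTyr) quantified in lysates by sandwich ELISA; IC50 from 4-parameter logistic fit against DMSO and reference-inhibitor controls.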

AXL = AXL (Homo sapiens (Human), UniProt P30530); experiment: AXL autophosphorylation ELISA in A-172 cells; conditions: cellular, Gas6-stimulated, phospho-AXL ELISA
Sequence of AXL (P30530 26-894): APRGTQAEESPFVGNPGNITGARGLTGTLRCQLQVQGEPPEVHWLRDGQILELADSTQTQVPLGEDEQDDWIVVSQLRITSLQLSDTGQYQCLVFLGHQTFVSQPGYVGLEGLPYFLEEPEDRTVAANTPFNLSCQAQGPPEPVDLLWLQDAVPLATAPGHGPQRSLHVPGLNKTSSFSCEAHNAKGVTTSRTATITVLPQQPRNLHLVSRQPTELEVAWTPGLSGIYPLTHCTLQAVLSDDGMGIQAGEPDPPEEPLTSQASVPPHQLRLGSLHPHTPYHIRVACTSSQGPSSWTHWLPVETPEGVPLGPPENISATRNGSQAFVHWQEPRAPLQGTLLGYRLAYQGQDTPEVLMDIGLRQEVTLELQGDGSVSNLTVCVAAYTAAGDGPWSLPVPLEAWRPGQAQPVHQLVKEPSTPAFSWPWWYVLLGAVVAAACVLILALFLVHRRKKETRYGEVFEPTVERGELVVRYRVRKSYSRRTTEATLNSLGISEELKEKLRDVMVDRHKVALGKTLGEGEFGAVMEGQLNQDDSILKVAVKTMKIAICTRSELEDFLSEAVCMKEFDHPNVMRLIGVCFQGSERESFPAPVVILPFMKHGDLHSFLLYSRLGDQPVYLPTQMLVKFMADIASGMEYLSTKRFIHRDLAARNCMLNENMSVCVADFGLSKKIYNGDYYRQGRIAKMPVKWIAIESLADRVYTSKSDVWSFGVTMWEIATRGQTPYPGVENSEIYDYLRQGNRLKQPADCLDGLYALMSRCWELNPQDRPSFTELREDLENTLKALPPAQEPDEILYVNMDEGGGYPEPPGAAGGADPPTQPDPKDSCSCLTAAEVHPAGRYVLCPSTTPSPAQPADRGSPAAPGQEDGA
Procedure, shortened: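 A-172 glioblastoma cells, serum-starved 24 h, got 8-point compound dilutions (0.3% DMSO) for 1 h, then 1 μg/mL human Gas6 for 15 min. Phospho-AXL in lysates was quantified by ELISA against a standard, normalized between DMSO and reference-inhibitor controls; IC50 by 4-parameter logistic fit.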

Mer = Mer (Homo sapiens (Human), UniProt Q12866); experiment: Mer autophosphorylation ELISA in transient transfected 293A cells; conditions: cellular, MERTK-transfected 293A cells, phospho-Mer ELISA
Sequence of Mer (Q12866 21-999): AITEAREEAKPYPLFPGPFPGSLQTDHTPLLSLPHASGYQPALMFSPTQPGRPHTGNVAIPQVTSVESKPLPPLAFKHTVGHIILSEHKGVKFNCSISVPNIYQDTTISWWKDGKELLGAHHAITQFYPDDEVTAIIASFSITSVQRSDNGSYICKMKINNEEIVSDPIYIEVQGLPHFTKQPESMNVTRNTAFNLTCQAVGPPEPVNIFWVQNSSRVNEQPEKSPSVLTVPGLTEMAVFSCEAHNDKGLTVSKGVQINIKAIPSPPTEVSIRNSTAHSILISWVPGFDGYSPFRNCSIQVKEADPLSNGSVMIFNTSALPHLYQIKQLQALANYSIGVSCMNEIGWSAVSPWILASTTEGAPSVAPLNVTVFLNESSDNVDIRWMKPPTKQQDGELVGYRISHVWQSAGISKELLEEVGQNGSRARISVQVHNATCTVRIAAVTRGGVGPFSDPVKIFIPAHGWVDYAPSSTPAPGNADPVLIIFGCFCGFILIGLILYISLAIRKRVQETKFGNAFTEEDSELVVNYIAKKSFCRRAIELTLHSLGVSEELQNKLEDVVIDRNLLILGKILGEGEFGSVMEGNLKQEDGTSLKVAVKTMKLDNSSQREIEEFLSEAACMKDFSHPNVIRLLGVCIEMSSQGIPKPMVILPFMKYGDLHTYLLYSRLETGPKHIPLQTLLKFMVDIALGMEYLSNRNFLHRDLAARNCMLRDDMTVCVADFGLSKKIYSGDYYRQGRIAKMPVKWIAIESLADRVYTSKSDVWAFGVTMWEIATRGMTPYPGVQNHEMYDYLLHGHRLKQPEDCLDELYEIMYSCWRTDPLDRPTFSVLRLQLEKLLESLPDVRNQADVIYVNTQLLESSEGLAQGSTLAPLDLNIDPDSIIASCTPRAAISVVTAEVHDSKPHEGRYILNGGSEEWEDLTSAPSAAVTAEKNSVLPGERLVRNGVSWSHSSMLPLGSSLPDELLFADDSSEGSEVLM
Procedure: 293A cells (Thermo Fisher #R70507) were seeded at 1.5×10^6 cells/well onto 100 mm dish (Greiner #664169), in DMEM (Thermo Fisher #11995-040) containing 10% FBS (Thermo Fisher #26140-079), 1% MEM NEAA (Thermo Fisher #11140-050), 1% GlutaMax (Thermo Fisher #35050-061), and 1% Penicillin Streptomycin (Thermo Fisher #15140-122). 293A cells were incubated at 37° C., 5% CO2 for 24 h and then transfected with 6 μg MERTK DNA (Genecopoeia #EX-Z8208-M02) using TransIT LT1 transfection reagent (Mirus-Bio #MIR2305). After 24 h incubation, the transfected 293A cells were seeded at 1×10^5 cells/well onto 96-well plates (Corning #3904) in DMEM growth medium overnight. Test compounds were serially diluted to produce an 8-point dose curve in fresh serum-free medium to a final concentration of 0.3% DMSO (vehicle) and added to the cells and incubated for 1 h. Cells were then immediately lysed with 150 μL of cold IX lysis buffer [20 mM Tris, 137 mM sodium chloride, 2 mM EDTA, 10% glycerol, 1% NP-40 alternative, 1 mM activated sodium orthovanadate, 1 mM PefaBloc SC (Sigma-Aldrich #11429868001), protease/phosphatase inhibitor tablet (Thermo Fisher #A32959)]. Lysates were clarified by centrifugation and 50 μL/well added into the human phospho-Mer DuoSet IC ELISA (R&D Systems #DYC2579-2). Assay was performed according to manufacturer's instructions and sample phospho-Mer concentrations were extrapolated using human phospho-Mer control (R&D Systems #841793) as a standard. Positive control wells (100% activity) contained DMSO-treated cell lysates. Negative control wells (0% activity) contained reference inhibitor-treated cell lysates. IC50 values were calculated by nonlinear regression analysis using a 4-parameter logistic curve fit in ActivityBase XE (IDBS).

KDR = KDR (Homo sapiens (Human), UniProt P35968); experiment: KDR autophosphorylation ELISA in HUVEC cells; conditions: cellular, VEGF165-stimulated, phospho-KDR ELISA
Sequence of KDR (P35968 20-1356): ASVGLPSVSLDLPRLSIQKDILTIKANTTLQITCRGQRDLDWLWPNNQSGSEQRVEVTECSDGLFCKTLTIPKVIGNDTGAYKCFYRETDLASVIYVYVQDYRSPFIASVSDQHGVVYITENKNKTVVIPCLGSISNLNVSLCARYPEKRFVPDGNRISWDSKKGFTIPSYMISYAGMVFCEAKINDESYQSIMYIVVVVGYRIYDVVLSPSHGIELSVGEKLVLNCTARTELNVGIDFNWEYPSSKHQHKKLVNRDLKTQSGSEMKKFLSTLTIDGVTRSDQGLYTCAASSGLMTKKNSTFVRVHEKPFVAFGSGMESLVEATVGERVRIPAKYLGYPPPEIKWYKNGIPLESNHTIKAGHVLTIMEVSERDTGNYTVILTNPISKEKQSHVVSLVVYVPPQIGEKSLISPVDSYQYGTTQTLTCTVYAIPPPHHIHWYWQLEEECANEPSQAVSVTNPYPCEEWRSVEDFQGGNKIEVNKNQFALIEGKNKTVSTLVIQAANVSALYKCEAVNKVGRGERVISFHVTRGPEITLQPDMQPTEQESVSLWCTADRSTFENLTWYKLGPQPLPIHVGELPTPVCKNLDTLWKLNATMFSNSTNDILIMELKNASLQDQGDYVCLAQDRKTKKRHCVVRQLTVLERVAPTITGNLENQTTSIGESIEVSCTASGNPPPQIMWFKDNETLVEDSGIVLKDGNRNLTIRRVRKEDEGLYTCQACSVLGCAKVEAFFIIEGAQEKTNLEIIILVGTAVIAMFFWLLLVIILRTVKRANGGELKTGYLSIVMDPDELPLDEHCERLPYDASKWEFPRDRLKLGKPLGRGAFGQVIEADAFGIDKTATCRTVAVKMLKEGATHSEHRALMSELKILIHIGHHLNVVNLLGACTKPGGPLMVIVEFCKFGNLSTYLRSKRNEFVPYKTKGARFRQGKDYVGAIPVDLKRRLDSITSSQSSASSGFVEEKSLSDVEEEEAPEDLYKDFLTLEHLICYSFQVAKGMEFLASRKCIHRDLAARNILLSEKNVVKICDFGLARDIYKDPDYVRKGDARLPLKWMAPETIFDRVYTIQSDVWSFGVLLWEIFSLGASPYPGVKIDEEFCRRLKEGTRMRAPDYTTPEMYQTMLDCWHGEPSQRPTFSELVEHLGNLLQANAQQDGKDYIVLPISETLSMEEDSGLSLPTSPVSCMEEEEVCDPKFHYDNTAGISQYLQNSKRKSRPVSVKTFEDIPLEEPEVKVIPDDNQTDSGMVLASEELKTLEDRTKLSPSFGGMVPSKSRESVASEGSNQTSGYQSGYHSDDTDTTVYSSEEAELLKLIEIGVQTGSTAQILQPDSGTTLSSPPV
Procedure, shortened: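 Serum-starved (24 h) HUVECs were pre-treated with compound (8-point dose curve, 0.3% DMSO final) for 1 h, then stimulated with 100 ng/mL human VEGF165 for 5 min. Lysate phospho-KDR was quantified by ELISA against a phospho-KDR standard. IC50 came from a 4-parameter logistic fit, normalized to stimulated-DMSO (100%) and unstimulated (0%) controls.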

Sequence of Met (P08581 25-1390): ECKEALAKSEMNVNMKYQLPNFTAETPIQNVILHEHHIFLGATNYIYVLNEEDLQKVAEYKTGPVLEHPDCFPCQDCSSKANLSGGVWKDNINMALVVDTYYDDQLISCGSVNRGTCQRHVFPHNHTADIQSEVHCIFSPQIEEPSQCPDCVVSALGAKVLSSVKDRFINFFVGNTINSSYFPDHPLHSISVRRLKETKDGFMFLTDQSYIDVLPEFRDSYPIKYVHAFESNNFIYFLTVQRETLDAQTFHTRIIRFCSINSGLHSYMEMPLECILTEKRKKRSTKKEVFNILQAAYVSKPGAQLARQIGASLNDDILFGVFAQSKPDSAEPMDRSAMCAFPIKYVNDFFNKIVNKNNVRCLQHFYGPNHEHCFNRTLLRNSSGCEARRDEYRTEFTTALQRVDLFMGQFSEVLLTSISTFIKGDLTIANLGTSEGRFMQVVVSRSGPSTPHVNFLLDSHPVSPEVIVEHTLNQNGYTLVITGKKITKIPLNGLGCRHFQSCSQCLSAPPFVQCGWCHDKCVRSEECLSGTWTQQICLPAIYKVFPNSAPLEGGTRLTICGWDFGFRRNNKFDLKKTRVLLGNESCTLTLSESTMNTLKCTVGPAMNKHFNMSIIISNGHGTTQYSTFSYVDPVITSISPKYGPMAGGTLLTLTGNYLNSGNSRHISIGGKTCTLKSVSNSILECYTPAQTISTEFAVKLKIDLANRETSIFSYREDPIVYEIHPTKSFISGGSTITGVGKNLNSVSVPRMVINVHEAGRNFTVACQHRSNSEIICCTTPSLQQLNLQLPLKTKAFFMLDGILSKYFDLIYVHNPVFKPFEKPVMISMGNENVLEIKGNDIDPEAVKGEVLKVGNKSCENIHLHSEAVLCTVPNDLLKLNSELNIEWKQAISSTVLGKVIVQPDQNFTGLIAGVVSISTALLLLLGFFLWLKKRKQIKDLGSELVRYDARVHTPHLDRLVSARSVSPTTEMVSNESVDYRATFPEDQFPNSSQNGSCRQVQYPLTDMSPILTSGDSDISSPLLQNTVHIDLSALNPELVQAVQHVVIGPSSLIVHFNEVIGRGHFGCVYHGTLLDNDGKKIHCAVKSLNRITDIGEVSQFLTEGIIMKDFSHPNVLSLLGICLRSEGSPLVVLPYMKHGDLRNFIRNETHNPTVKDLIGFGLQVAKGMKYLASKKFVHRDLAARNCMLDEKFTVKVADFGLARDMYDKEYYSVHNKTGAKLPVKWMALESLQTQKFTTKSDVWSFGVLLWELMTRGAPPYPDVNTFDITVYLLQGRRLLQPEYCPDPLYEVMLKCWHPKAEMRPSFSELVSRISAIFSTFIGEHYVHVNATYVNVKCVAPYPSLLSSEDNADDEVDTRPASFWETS

| Structure (SMILES) | pIC50 (Met) | pIC50 (AXL) | pIC50 (Mer) | pIC50 (KDR) |
| --- | --- | --- | --- | --- |
| COCCOc1cc2ncnc(Oc3ccc(NC(=O)C4(C(=O)Nc5ccc(F)cc5)CC4)c(F)c3F)c2nc1OC [Compound 82, 1-N′-[2,3-difluoro-4-[6-methoxy-7-(2-methoxy-ethoxy)pyrido[3,2-d]pyrimidin-4-yl]oxyphenyl]-1-N-(4-fluorophenyl)cyclo-propane-1,1-dicarboxamide] | 7.00 to 8.00 | ≥ 8.00 | 7.00 to 8.00 | ≥ 8.00 |
| COCCOc1cc2ncnc(Oc3cc(F)c(NC(=O)C4(C(=O)Nc5ccc(F)cc5)CC4)cc3F)c2nc1OC [Compound 83, 1-N′-[2,5-difluoro-4-[6-methoxy-7-(2-methoxy-ethoxy)pyrido[3,2-d]pyrimidin-4-yl]oxyphenyl]-1-N-(4-fluorophenyl)cyclopropane-1,1-dicarboxamide] | 7.00 to 8.00 | ≥ 8.00 | ≥ 8.00 | ≥ 8.00 |
| Cn1cc(-c2cnc3c(Oc4ccc(NC(=O)C5(C(=O)Nc6ccc(F)cc6)CC5)cc4)ncnc3c2)cn1 [Compound 129, 1-N′-(4-fluorophenyl)-1-N-[4-[7-(1-methylpyrazol-4-yl)pyrido[3,2-d]pyrimidin-4-yl]oxyphenyl]cyclo-propane-1,1-dicarboxamide] | 6.52 to 7.00 | 7.00 to 8.00 | 6.52 to 7.00 | 6.52 to 7.00 |
| COc1cc2ncnc(Oc3cc(F)c(NC(=O)C4(C(=O)Nc5ccc(F)cc5)CC4)cc3F)c2nc1OC [Compound 35, 1-N′-[4-(6,7-dimethoxypyrido[3,2-d]pyrimidin-4-yl)oxy-2,5-difluorophenyl]-1-N-(4-fluorophenyl)cyclo-propane-1,1-dicarboxamide] | ≥ 8.00 | ≥ 8.00 | ≥ 8.00 | 7.00 to 8.00 |
| COc1nc2c(Oc3cc(F)c(NC(=O)C4(C(=O)Nc5ccc(F)cc5)CC4)cc3F)ncnc2cc1OCCCN1CCOCC1 [Compound 72, 1-N′-[2,5-difluoro-4-[6-methoxy-7-(3-morpholin-4-ylpropoxy)pyrido[3,2-d]pyrimidin-4-yl]oxyphenyl]-1-N-(4-fluorophenyl)cyclo-propane-1,1-dicarboxamide] | 7.00 to 8.00 | ≥ 8.00 | 7.00 to 8.00 | 7.00 to 8.00 |
| COc1cc2ncnc(Oc3ccc(NC(=O)C4(C(=O)Nc5ccc(F)cc5)CC4)c(F)c3)c2nc1OC [Compound 31, 1-N′-[4-(6,7-dimethoxy-pyrido[3,2-d]pyrimidin-4-yl)oxy-2-fluorophenyl]-1-N-(4-fluorophenyl)cyclo-propane-1,1-dicarboxamide] | 7.00 to 8.00 | ≥ 8.00 | 7.00 to 8.00 | 7.00 to 8.00 |
| COc1nc2c(Oc3ccc(NC(=O)C4(C(=O)Nc5ccc(F)cc5)CC4)cc3C)ncnc2cc1OCCCN1CCOCC1 [Compound 68, 1-N-(4-fluorophenyl)-1-N′-[4-[6-methoxy-7-(3-morpholin-4-ylpropoxy)pyrido[3,2-d]pyrimidin-4-yl]oxy-3-methylphenyl]cyclopropane-1,1-dicarboxamide] | 6.52 to 7.00 | 7.00 to 8.00 | 7.00 to 8.00 | 7.00 to 8.00 |
| COCCOc1cc2ncnc(Oc3ccc(NC(=O)C4(C(=O)Nc5ccc(F)cc5)CC4)cc3Cl)c2nc1OC [Compound 80, 1-N′-[3-chloro-4-[6-methoxy-7-(2-methoxyethoxy)pyrido[3,2-d]pyrimidin-4-yl]oxy-phenyl]-1-N-(4-fluorophenyl)cyclo-propane-1,1-dicarboxamide] | 7.00 to 8.00 | 7.00 to 8.00 | ≥ 8.00 | ≥ 8.00 |
| COc1nc2c(Oc3ccc(NC(=O)C4(C(=O)Nc5ccc(F)cc5)CC4)c(C)c3)ncnc2cc1OCCCN1CCOCC1 [Compound 71, 1-N-(4-fluorophenyl)-1-N′-[4-[6-methoxy-7-(3-morpholin-4-ylpropoxy)pyrido[3,2-d]pyrimidin-4-yl]oxy-2-methylphenyl]cyclopropane-1,1-dicarboxamide] | 6.52 to 7.00 | 7.00 to 8.00 | < 6.52 | 7.00 to 8.00 |
| COc1nc2c(Oc3ccc(NC(=O)C4(C(=O)Nc5ccc(F)cc5)CC4)c(F)c3F)ncnc2cc1OCCCN1CCOCC1 [Compound 73, 1-N′-[2,3-difluoro-4-[6-methoxy-7-(3-morpholin-4-ylpropoxy)pyrido[3,2-d]pyrimidin-4-yl]oxyphenyl]-1-N-(4-fluoro-phenyl)cyclopropane-1,1-dicarboxamide] | 7.00 to 8.00 | ≥ 8.00 | ≥ 8.00 | ≥ 8.00 |
| COc1cnc2c(Oc3cc(F)c(NC(=O)C4(C(=O)Nc5ccc(F)cc5)CC4)cc3F)ncnc2c1 [Compound 19, 1-N′-[2,5-difluoro-4-(7-methoxypyrido[3,2-d]pyrimidin-4-yl)oxyphenyl]-1-N-(4-fluorophenyl)cyclo-propane-1,1-dicarboxamide] | 7.00 to 8.00 | 7.00 to 8.00 | 7.00 to 8.00 | 6.52 to 7.00 |
| COCCOc1cc2ncnc(Oc3ccc(NC(=O)C4(C(=O)Nc5ccc(F)cc5)CC4)cc3F)c2nc1OC [Compound 79, 1-N′-[3-fluoro-4-[6-methoxy-7-(2-methoxyethoxy)pyrido[3,2-d]pyrimidin-4-yl]oxy-phenyl]-1-N-(4-fluorophenyl)cyclopropane-1,1-dicarboxamide] | 7.00 to 8.00 | ≥ 8.00 | ≥ 8.00 | ≥ 8.00 |
| COCCOc1cc2ncnc(Oc3ccc(NC(=O)C4(C(=O)Nc5ccc(F)cc5)CC4)c(F)c3)c2nc1OC [Compound 81, 1-N′-[2-fluoro-4-[6-methoxy-7-(2-methoxyethoxy)pyrido[3,2-d]pyrimidin-4-yl]oxy-phenyl]-1-N-(4-fluorophenyl)cyclopropane-1,1-dicarboxamide] | 7.00 to 8.00 | ≥ 8.00 | ≥ 8.00 | 7.00 to 8.00 |

Reference: US11708367B2, “Compounds for the treatment of kinase-dependent disorders” (Exelixis, Inc., priority 2018, dated 2023)
